Key:
[1] = test system: leukemia (AML/MDS, CML/CMML) patients; assay: Clinical response in the High Dose and Low Dose decitabine studies; format: in vivo, human
Description: (§1) FIG. 6 illustrates treatment schema of patient samples. Patients were treated as part of a Phase II study of Decitabine which was given initially a dose of 90 mg/m2 twice daily for 5 consecutive days. This dose was later decreased to 50 mg/m2 twice daily due to toxicity. In this “High” Dose Study a total dose of 500-900 mg/m2 of decitabine was given over a 5 day period. Peripheral blood specimens were collected on day 0 or 1 prior to treatment, days 2-4 during treatment, and on days 5 or 6 after the completion of treatment. In the second study, a Phase I strategy of “Low” Dose Decitabine was used. This study was designed to take advantage of Decitabine's demethylating properties. Escalating doses of Decitabine of 5, 10, 15 and 20 mg/m2 were given as ten daily doses over a two week period. The total dose delivered was only 50 to 200 mg/m2 over a 14 day period. Peripheral blood specimens were collected on day 0 or 1 prior to treatment, and during days 2-14 of treatment;
Patient samples were collected from patients treated as part of two clinical studies using 5-aza-2′deoxycytidine (decitabine) as a single agent. The first study treated patients with 50-90 mg/m2 of decitabine twice daily for 5 consecutive days (See FIG. 8). The second study was a phase I study which attempted to capitalize on the demethylating properties of decitabine by using a lower dose of decitabine, 5-20 mg/m^2 once daily, for a longer period of time, 10 days over a two week period (See FIG. 8). Peripheral blood samples were collected prior to, during and after treatment. Donation of blood samples for laboratory studies was voluntary and […] were collected from 41 patients participating in both studies (See Table 4). Due to competing protocols and the availability of patients at the time of the two respective studies the majority of the patients enrolled on DM−, the “High-Dose” study were CML patients and the majority of the patients enrolled on DM−, the “Low-Dose” study were AML or High Risk MDS patients.
Donation of peripheral blood for laboratory analysis was voluntary, and only some of the patients enrolled on the two studies participated. A total of 134 samples were collected for analysis (52 in the High Dose Study and 82 in the Low Dose Study). The majority of patients treated in the High Dose Study were CML patients, however, the majority of patients treated in the Low Dose Study were AML or High risk MDS patients.

Alu element methylation = assay: Alu element assay (COBRA) on peripheral blood of leukemia patients treated with decitabine; format: in vivo, human
Description: as §1
Normal colon mucosa and colon cancers were collected from consenting patients. Thirty-one matched pairs of normal colon mucosa and colon tumors were used in this study. An additional 9 normal colon samples were collected from patients undergoing colectomy for non-neoplastic reasons. DNA was isolated using standard phenol-chloroform extraction methods. DNA was bisulfite treated as described above. A previously described COBRA assay that examined Alu repetitive elements was developed as a global genome methylation assessment assay (Xiong and Laird, 1997). In brief, a 25 ul PCR reaction was carried out in 60 mM Tris-HCl pH 9.5, 15 mM Ammonium Sulfate, 5.5 mM MgCl2, 10% DMSO, 1 mM dNTP mix, 1 unit of Taq polymerase, 50 pmol of the forward primer (5′-[…]-3′) (SEQ ID NO: 1), 50 pmol of the reverse primer (5′-[…]-3′) (SEQ ID NO:2), and approximately 50 ng of bisulfite treated genomic DNA. PCR cycling conditions were 96° C. for 90 seconds, 43° C. for 60 seconds, and 72° C. for 120 seconds for 27 cycles. After the PCR reaction was complete 15 μl of MboI buffer (New England Biolabs Buffer #3) were added along with 5 units of MboI Restriction Enzyme and water to a final volume of 150 ul. The restriction digestion was incubated at 37° C. overnight to assure complete digestion. The digested PCR product was then precipitated by adding 1 μl glycogen and 2 volumes of ethanol and kept at −20° C. for at least 4 hours. Samples were then centrifuged for 30 minutes, the ethanol was poured off and the pellet was air dried prior to resuspending in a small volume (5-10 μl) of water. The digested PCR products were then run on an Agilent Biosystems DNA analyzer to quantitate the cut ([…]) and uncut ([…]) DNA. Each sample was run at least twice and the data reported is an average of all runs.
The methylation sites in Alu elements are frequently mutated from C to T by spontaneous deamination, which results in a gross underestimating of the amount of 5-methylcytosine. Therefore, control genomic DNA was double treated with SssI methylase and bisulfite treated to act as a 100% methylated control. Alu methylation is reported as a percentage of this fully methylated control standard.
Patient samples were collected from patients treated as part of two clinical studies using 5-aza-2′deoxycytidine (decitabine) as a single agent. The first study treated patients with 50-90 mg/m2 of decitabine twice daily for 5 consecutive days (See FIG. 8). The second study was a phase I study which attempted to capitalize on the demethylating properties of decitabine by using a lower dose of decitabine, 5-20 mg/m^2 once daily, for a longer period of time, 10 days over a two week period (See FIG. 8). Peripheral blood samples were collected prior to, during and after treatment. Donation of blood samples for laboratory studies was voluntary and 143 samples were collected from 41 patients participating in both studies (See Table 4). […]

[2] = Total of both studies, 41 patients

Compound: Nc1ncn([C@H]2C[C@H](O)[C@@H](CO)O2)c(=O)n1 [decitabine, 5-aza-2′-deoxycytidine]
- Response Rate ([1]; High Dose Study, 18 patients): 39%
- Treatment Response CR/PR (patients) ([1]; High Dose Study, 18 patients): 7
- Treatment Response No Response (patients) ([1]; High Dose Study, 18 patients): 11
- Response Rate ([1]; Low Dose Study, 23 patients): 35%
- Treatment Response CR/PR (patients) ([1]; Low Dose Study, 23 patients): 7
- Treatment Response No Response (patients) ([1]; Low Dose Study, 23 patients): 13
- Response Rate [1, 2]: 34%
- Treatment Response CR/PR (patients) [1, 2]: 14
- Treatment Response No Response (patients) [1, 2]: 24
- average Alu demethylation (Alu element methylation; 41 patients with leukemia, different doses, 4 to 7 days after treatment): 7.7%
- maximum decrease in Alu methylation seen in a single patient (Alu element methylation; 41 patients with leukemia, 4 to 7 days after treatment): 31.5%
- optimal demethylating dose (Alu element methylation; DNA methylation at days 5 to 6, both studies (FIG. 9B)): 15 to 20 mg/m2/day
- correlation of Alu demethylation with clinical response (Alu element methylation; High Dose Study (p=0.23)): demethylation did not correlate to response
- mean decrease of Alu element methylation (Alu element methylation; High Dose study, day 5 to 8): 10%
- correlation of Alu demethylation with clinical response (Alu element methylation; Low Dose Study (p=0.04 days 5-8, p=0.02 days 9-14)): demethylation did correlate to response
- decrease in Alu element methylation (Alu element methylation; Low dose study, day 5 to 8): 5%
- patients showing a paradoxical increase in DNA methylation with decitabine treatment (Alu element methylation; both studies): 12%
- mean decrease in Alu methylation (Alu element methylation; both studies, overall): 7.7%
- range of decrease in Alu methylation (Alu element methylation; both studies, overall): −10.3 to 31.5%
- patients showing a decrease in Alu methylation with decitabine treatment (Alu element methylation; both studies, 90.5% methylated prior to treatment): 88%
- earliest day demethylation could be detected (Alu element methylation; either dosing regimen): 2 days
- time at which demethylation plateaus (Alu element methylation; low dose decitabine): 5 to 8 days
- time for methylation to return to baseline after finishing treatment (in as little as) (Alu element methylation; patients with leukemia): 15 days
- dose dependence of demethylation at higher doses (Alu element methylation; six dose levels 5-180 mg/m2/day, day 5-6): there did not appear to be a significant increase in demethylation beyond 20 mg/m2/day
